Reference: patent US11471508B2, “HMGB1 antagonist treatment of diabetic peripheral neuropathy” (THE FEINSTEIN INSTITUTES FOR MEDICAL RESEARCH, priority 2019, dated 2022)
“Also recorded” adds a separate entry of the source. Where two headings read alike, the source gives them in different places.

Tests used:
[1] = tested on: APAP-induced liver injury; test: APAP-induced liver injury model; assay type: in vivo, mouse
[2] = Degradation in rat plasma and whole blood; assay type: in vitro ADME
Oral bioavailability = conditions: in vivo
[3] = assay type: in vivo; conditions: single-dose, rats
in vivo = conditions: male, Sprague-Dawley, rat, iv, 1 mg/kg, AUCtest
[4] = tested on: CCI-induced neuropathic pain; test: Chronic constriction injury of the sciatic nerve (CCI) neuropathic pain model; assay type: in vivo, rat
[5] = tested on: PAMPs (LPS, PGN, AGE and Poly I:C)-induced TNF release; test: PAMPs-induced TNF release in human macrophages; assay type: cell-based; conditions: LPS 4 ng/ml, poly I:C 50 μg/ml, PGN 5 μg/ml, S100A12 50 μg/ml; 16 hours
Description: TNF released was measured.

[6] = Pharmacokinetics after intravenous administration at 1 mg/kg in male Sprague-Dawley rats (LC-MS); conditions: Mean
[7] = Stability under acidic conditions (pH=2), LC-MS; assay type: physicochemical; conditions: pH=2, two hours
STZ-induced diabetes = test: STZ-induced diabetes; assay type: in vivo; conditions: repetitive administration, 500 μg/mouse
Description: In Example 21, the effect of selective HMGB1-TLR4/MD-2 inhibition in STZ-induced diabetes was evaluated. Increased levels of HMGB1 have been reported in both diabetic patients and animal models. For example, elevated expression of HMGB1 is found in the retinas of diabetic patients and rat models with retinopathy. ([…]., Upregulation of RAGE and its ligands in proliferative retinal disease, Experimental Eye Research, 2006; 82(5): 807-815; Yu Y., The role of high mobility group box 1 (HMGB-1) in the diabetic retinopathy inflammation and apoptosis, International Journal of Clinical and Experimental Pathology, 2015; 8(6): 6807). […] (Dasu M. […] Based on this literature, tests were conducted on the effects of […] (SEQ ID NO: 1) and […] on STZ-induced diabetes in mice. Mice were administered repetitive administration of […] (500 μg/mouse). […] Repetitive administration of […] was therefore shown to be beneficial in STZ-induced diabetes. […] (*: P<0.05 vs. PBS group. N=6-8 mice per group).

[8] = tested on: liver ischemia and reperfusion injury; test: Warm liver ischemia and reperfusion (I/R) model; assay type: in vivo, mouse; conditions: 6 hours after reperfusion, vs vehicle control
Description: […] (SEQ ID NO: 1) (or vehicle control) was administered intraperitoneally at 500 μg/mouse at the time of I/R surgery and euthanized 6 hours later. Serum levels of ALT and AST were reduced in […] (SEQ ID NO: 1)-treated group vs. vehicle controls. *: P<0.05 vs. I/R group. n=5-7 mice/group. […] (SEQ ID NO: 1)-treated mice as compared to vehicle control (neutrophil infiltration, arrow). n=3-5 mice per group.

[9] = male, Sprague-Dawley, rat, in vivo
[10] = tested on: HMGB1-induced TNF release; test: HMGB1-induced TNF release in human primary macrophages (ELISA); assay type: cell-based; conditions: FIG. 17A
Description: For all of these studies, TNF released was measured using an ELISA.

[11] = tested on: DAMPs (CIRP, SAA, PEDF, HSP 70, HSP90, H2A)-induced TNF secretion; test: DAMPs-induced TNF secretion in human macrophages; assay type: cell-based; conditions: 16 hours
[12] = tested on: liver ischemia and reperfusion injury; conditions: cited from earlier work
[13] = tested on: HMGB1-induced TNF release; conditions: cited from earlier work
[14] = tested on: TNF release stimulated by LPS, PGN, Poly I:C, CpG DNA or S100 A12; conditions: cited from earlier work
[15] = tested on: APAP-induced liver injury; conditions: cited from earlier work

NC(=O)N(CCC(=O)O)NC(=O)[C@H](CO)NC(=O)[C@H](CO)NC(=O)N(N)Cc1ccccc1 [K883]
liver necrosis (H&E) ([1]; APAP 350 mg/kg, K883 50 μg/mouse IP at 2 and 7 hours, 24 hours post-APAP, vs vehicle): reduced liver necrosis | mice surviving 2 weeks post-APAP ([1]; APAP 400 mg/kg, 50 μg/mouse IP once-a-day for 5 days from 2 hours post-APAP, control group 8): 14 mice out of 15 | degradation after incubating 120 minutes [2]: not degraded | oral bioavailability (Oral bioavailability): low | tolerability [3]: well-tolerated | AUC (in vivo): 3770 ng·h/mL | Paw Withdrawal Latency (sec), CCI ([4]; 0 hours post treatment, K883 800 μg/rat or 2g7 300 μg/rat IP): 4.1 ± 1.0 s | mechanical and thermal hypersensitivity ([4]; 800 μg/rat IP once a day for 3 days, Hargreaves, von Frey): ameliorated both mechanical and thermal hypersensitivity; also recorded: improved CCI-induced thermal and mechanical hypersensitivity | tolerance to repeated treatment ([4]; 800 μg/rat IP once daily for three days, 2 weeks): did not develop tolerance | Paw Withdrawal Latency (sec), CCI ([4]; 2 hours post treatment): 4.3 ± 1.2 s | Paw Withdrawal Latency (sec), CCI ([4]; 6 hours post treatment): 6.0 ± 0.6 s | Paw Withdrawal Latency (sec), CCI ([4]; 24 hours post treatment): 5.0 ± 0.5 s | thermal hypersensitivity ([4]; CCI rats): ameliorated the thermal hypersensitivity | CCI-induced CXCL1 and TNF expression (DRGs) ([4]; DRGs): reduce CCI-induced CSCL1 and TNF expression | CCI-induced CXCL1, TNF and IL-1β expression (spine) ([4]; spine): reduce CCI-induced CSCL1, TNF and IL-1β expression | PAMPs-induced TNF release [5]: failed to inhibit other PAMPS; also recorded: does not inhibit other PAMPs | Plasma concentration ([6]; 0.50 hr): 2913 ng/mL | Plasma concentration ([6]; 1.0 hr): 1091 ng/mL | Plasma concentration ([6]; 2.0 hr): 135 ng/mL | Plasma concentration ([6]; 4.0 hr): 16.6 ng/mL | Plasma concentration ([6]; 8.0 hr): 1.52 ng/mL | stability to acid hydrolysis [7]: resistant to acid hydrolysis | insulitis (STZ-induced diabetes): reduces insulitis | weight gain (STZ-induced diabetes): improves weight gain | hyperglycemia (STZ-induced diabetes; vs AI5779 or PBS controls): delays hyperglycemia | liver inflammation (H&E, neutrophil infiltration) [8]: reduced inflammation | Plasma concentration ([9]; 0.5 hr): 2500 ng/mL | Plasma concentration ([9]; 1 hr): 1300 ng/mL | Plasma concentration ([9]; 2 hr): 130 ng/mL | Plasma concentration ([9]; 6 hr): 5.10 ng/mL | Plasma concentration ([9]; 8 hr): 2.01 ng/mL | HMGB1-induced TNF secretion [10]: causes inhibition | TNF secretion induced by other DAMPs [11]: is not inhibited

NC(=O)[C@H](CCC(=O)O)NC(=O)[C@H](CO)NC(=O)[C@H](CO)NC(=O)[C@@H](N)Cc1ccccc1 [P5779]
serum levels of ALT and AST ([12]; 500 μg/mouse IP at time of I/R surgery, 6 hours): reduced | liver inflammation (H&E, neutrophil infiltration) ([12]; 6 hours after reperfusion, vs vehicle control): reduced inflammation | HMGB1-induced TNF release from macrophages [13]: inhibit HMGB1-induced TNF release from macrophages in a concentration-dependent manner | TNF release in macrophages stimulated by LPS, PGN, Poly I:C, CpG DNA or S100 A12 [14]: not suppress TNF release | serum ALT ([15]; 500 ugs/mouse): significant reductions in ALT | liver necrosis (H&E) ([15]; APAP 350 mg/kg, P5779 50 or 500 μg/mouse IP at 2 and 7 hours, vs scrambled control peptide): reduced liver necrosis | percent survival (2 weeks) post-APAP ([15]; APAP 400 mg/kg, 500 μg/mouse IP once a day for 5 days): significantly improved
